From BigSolDB 2.1

O=c1nc[nH]c2[nH]ncc12
Conditions | solubility (mole fraction)
in 1,4-dioxane, 283.15 K | 2.91e-05
in 1,4-dioxane, 288.15 K | 3.71e-05
in 1,4-dioxane, 293.15 K | 4.64e-05
in 1,4-dioxane, 298.15 K | 5.74e-05
in 1,4-dioxane, 303.15 K | 7.03e-05
in 1,4-dioxane, 308.15 K | 8.43e-05
in 1,4-dioxane, 313.15 K | 0.000102
in 1,4-dioxane, 318.15 K | 0.000123
in 1,4-dioxane, 323.15 K | 0.000148
in 1,4-dioxane, 328.15 K | 0.000178
in 1,4-dioxane, 333.15 K | 0.000204
in 2-butanone, 278.15 K | 0.000783
in 2-butanone, 283.15 K | 0.000954
in 2-butanone, 288.15 K | 0.00115
in 2-butanone, 293.15 K | 0.00138
in 2-butanone, 298.15 K | 0.00165
in 2-butanone, 303.15 K | 0.00196
in 2-butanone, 308.15 K | 0.00231
in 2-butanone, 313.15 K | 0.00271
in 2-butanone, 318.15 K | 0.00316
in 2-butanone, 323.15 K | 0.00367
in 2-butanone, 328.15 K | 0.00425
in 2-butanone, 333.15 K | 0.00491
in DMF, 278.15 K | 0.00223
in DMF, 283.15 K | 0.00266
in DMF, 288.15 K | 0.00316
in DMF, 293.15 K | 0.00373
in DMF, 298.15 K | 0.00437
in DMF, 303.15 K | 0.00509
in DMF, 308.15 K | 0.00591
in DMF, 313.15 K | 0.00683
in DMF, 318.15 K | 0.00785
in DMF, 323.15 K | 0.00898
in DMF, 328.15 K | 0.01
in DMF, 333.15 K | 0.0121
in NMP, 278.15 K | 0.0151
in NMP, 283.15 K | 0.017
in NMP, 288.15 K | 0.02
in NMP, 293.15 K | 0.022
in NMP, 298.15 K | 0.0251
in NMP, 303.15 K | 0.0281
in NMP, 308.15 K | 0.032
in NMP, 313.15 K | 0.035
in NMP, 318.15 K | 0.0391
in NMP, 323.15 K | 0.0431
in NMP, 328.15 K | 0.0481
in NMP, 333.15 K | 0.0531
in acetone, 278.15 K | 0.000653
in acetone, 283.15 K | 0.000797
in acetone, 288.15 K | 0.000966
in acetone, 293.15 K | 0.00116
in acetone, 298.15 K | 0.00139
in acetone, 303.15 K | 0.00166
in acetone, 308.15 K | 0.00196
in acetone, 313.15 K | 0.00231
in acetone, 318.15 K | 0.0027
in acetone, 323.15 K | 0.00314
in acetone, 328.15 K | 0.00365
in acetone, 333.15 K | 0.00421
in acetonitrile, 278.15 K | 9.6e-05
in acetonitrile, 283.15 K | 0.000117
in acetonitrile, 288.15 K | 0.000141
in acetonitrile, 293.15 K | 0.00017
in acetonitrile, 298.15 K | 0.000204
in acetonitrile, 303.15 K | 0.000239
in acetonitrile, 308.15 K | 0.000286
in acetonitrile, 313.15 K | 0.000331
in acetonitrile, 318.15 K | 0.000384
in acetonitrile, 323.15 K | 0.000448
in acetonitrile, 328.15 K | 0.000522
in acetonitrile, 333.15 K | 0.00059
in cyclohexane, 283.15 K | 4.74e-07
in cyclohexane, 288.15 K | 6.38e-07
in cyclohexane, 293.15 K | 7.68e-07
in cyclohexane, 298.15 K | 1.02e-06
in cyclohexane, 303.15 K | 1.24e-06
in cyclohexane, 308.15 K | 1.61e-06
in cyclohexane, 313.15 K | 1.97e-06
in cyclohexane, 318.15 K | 2.48e-06
in cyclohexane, 323.15 K | 3.05e-06
in cyclohexane, 328.15 K | 3.77e-06
in cyclohexane, 333.15 K | 4.37e-06
in ethanol, 278.15 K | 2.46e-05
in ethanol, 283.15 K | 3.28e-05
in ethanol, 288.15 K | 4.27e-05
in ethanol, 293.15 K | 5.5e-05
in ethanol, 298.15 K | 6.99e-05
in ethanol, 303.15 K | 8.97e-05
in ethanol, 308.15 K | 0.000109
in ethanol, 313.15 K | 0.000139
in ethanol, 318.15 K | 0.000172
in ethanol, 323.15 K | 0.000211
in ethanol, 328.15 K | 0.000258
in ethanol, 333.15 K | 0.00031
in isopropanol, 278.15 K | 3.64e-05
in isopropanol, 283.15 K | 4.68e-05
in isopropanol, 288.15 K | 5.84e-05
in isopropanol, 293.15 K | 7.35e-05
in isopropanol, 298.15 K | 9.2e-05
in isopropanol, 303.15 K | 0.000112
in isopropanol, 308.15 K | 0.000138
in isopropanol, 313.15 K | 0.000171
in isopropanol, 318.15 K | 0.000204
in isopropanol, 323.15 K | 0.000245
in isopropanol, 328.15 K | 0.000296
in isopropanol, 333.15 K | 0.000346
in methanol, 278.15 K | 2.05e-05
in methanol, 283.15 K | 2.7e-05
in methanol, 288.15 K | 3.61e-05
in methanol, 293.15 K | 4.65e-05
in methanol, 298.15 K | 5.97e-05
in methanol, 303.15 K | 7.6e-05
in methanol, 308.15 K | 9.62e-05
in methanol, 313.15 K | 0.00012
in methanol, 318.15 K | 0.000152
in methanol, 323.15 K | 0.000189
in methanol, 328.15 K | 0.000235
in methanol, 333.15 K | 0.000283
in n-butanol, 278.15 K | 6.63e-05
in n-butanol, 283.15 K | 8.13e-05
in n-butanol, 288.15 K | 0.0001
in n-butanol, 293.15 K | 0.000124
in n-butanol, 298.15 K | 0.000151
in n-butanol, 303.15 K | 0.000184
in n-butanol, 308.15 K | 0.000219
in n-butanol, 313.15 K | 0.00026
in n-butanol, 318.15 K | 0.000312
in n-butanol, 323.15 K | 0.000366
in n-butanol, 328.15 K | 0.000429
in n-butanol, 333.15 K | 0.000496
in n-heptanol, 278.15 K | 0.000127
in n-heptanol, 283.15 K | 0.000149
in n-heptanol, 288.15 K | 0.000175
in n-heptanol, 293.15 K | 0.000205
in n-heptanol, 298.15 K | 0.000239
in n-heptanol, 303.15 K | 0.000276
in n-heptanol, 308.15 K | 0.000318
in n-heptanol, 313.15 K | 0.000365
in n-heptanol, 318.15 K | 0.000418
in n-heptanol, 323.15 K | 0.000473
in n-heptanol, 328.15 K | 0.000544
in n-heptanol, 333.15 K | 0.000614
in n-hexanol, 278.15 K | 8.05e-05
in n-hexanol, 283.15 K | 9.84e-05
in n-hexanol, 288.15 K | 0.000119
in n-hexanol, 293.15 K | 0.000145
in n-hexanol, 298.15 K | 0.000177
in n-hexanol, 303.15 K | 0.000214
in n-hexanol, 308.15 K | 0.000259
in n-hexanol, 313.15 K | 0.000302
in n-hexanol, 318.15 K | 0.00036
in n-hexanol, 323.15 K | 0.00042
in n-hexanol, 328.15 K | 0.000499
in n-hexanol, 333.15 K | 0.000566
in n-propanol, 278.15 K | 4.85e-05
in n-propanol, 283.15 K | 6.16e-05
in n-propanol, 288.15 K | 7.66e-05
in n-propanol, 293.15 K | 9.52e-05
in n-propanol, 298.15 K | 0.000114
in n-propanol, 303.15 K | 0.00014
in n-propanol, 308.15 K | 0.000164
in n-propanol, 313.15 K | 0.000201
in n-propanol, 318.15 K | 0.000247
in n-propanol, 323.15 K | 0.000293
in n-propanol, 328.15 K | 0.000349
in n-propanol, 333.15 K | 0.000403
in water, 278.15 K | 8.71e-06
in water, 283.15 K | 1.18e-05
in water, 288.15 K | 1.57e-05
in water, 293.15 K | 2.12e-05
in water, 298.15 K | 2.94e-05
in water, 303.15 K | 3.83e-05
in water, 308.15 K | 5.01e-05
in water, 313.15 K | 6.44e-05
in water, 318.15 K | 8.32e-05
in water, 323.15 K | 0.000107
in water, 328.15 K | 0.000134
in water, 333.15 K | 0.000167
